Data taken from ChEMBL document CHEMBL3272110, “Synthesis and biological properties of 4-amino- and 4-bromo-4-norpyridoxol. New approaches for the modification of the 4 position of vitamin B6” (1976).
The source made the active and inactive calls. No cut-off for these calls is given here.

Key:
TA3 [1] = assay: Growth inhibition of mouse TA3 cells; format: functional
TA3 [2] = assay: Growth inhibition of mouse TA3 cells at 10^-4 M; format: functional

| SMILES | ID50 (TA3 [1]) [×10⁻⁵ M] | growth inhibition (GI) (TA3 [2]) | further results |
| --- | --- | --- | --- |
| Br.Cc1ncc(CO)c(Br)c1O | 1 |  |  |
| Cc1ncc(CO)c(O)c1O |  | inactive |  |
| Cc1ncc(CBr)c(N)c1O |  |  | inhibition of growth at 100 µM (TA3 [2]; read-out: GI): 30% |
| Cc1ncc(CO)c(N)c1O |  | inactive |  |
| Cc1ncc(CO)c(/C=N/O)c1O | 8 |  |  |
| Cc1ncc(CO)c(C(F)(F)F)c1O | 2 |  |  |
